{"source": "PubChem BioAssay (NCI)", "assay_in_all_cases": "NCI-60 cell line screen, 48 h", "key": {"U251 CNS": {"system": "U251 CNS"}, "IGROV1 ovarian": {"system": "IGROV1 ovarian"}, "OVCAR-5 ovarian": {"system": "OVCAR-5 ovarian"}, "OVCAR-4 ovarian": {"system": "OVCAR-4 ovarian"}, "HCC-2998 colon": {"system": "HCC-2998 colon"}, "NCI-H23 lung": {"system": "NCI-H23 lung"}, "HOP-92 NSCLC": {"system": "HOP-92 NSCLC"}, "NCI-H522 lung": {"system": "NCI-H522 lung"}, "OVCAR-3 ovarian": {"system": "OVCAR-3 ovarian"}, "M14 melanoma": {"system": "M14 melanoma"}}, "note": "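All cell lines were grown in 96-well plates and treated with compound for 48 hours. The concentration for 50% growth inhibition is given as GI50. TGI is the concentration that stops growth completely.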"}
{"smiles": "CN1CCN(c2ccc(-c3ccc4ncc(C#N)c(Nc5ccc(F)c(Cl)c5)c4c3)cc2)CC1", "values": [{"measurement": "GI50", "setting": "U251 CNS", "result": 2.3, "unit": "µM"}, {"measurement": "TGI", "setting": "U251 CNS", "result": 7.47, "unit": "µM"}, {"measurement": "GI50", "setting": "IGROV1 ovarian", "result": 0.321, "unit": "µM"}, {"measurement": "TGI", "setting": "IGROV1 ovarian", "result": 10.5, "unit": "µM"}, {"measurement": "GI50", "setting": "OVCAR-5 ovarian", "result": 4.74, "unit": "µM"}, {"measurement": "TGI", "setting": "OVCAR-5 ovarian", "result": 25.5, "unit": "µM"}, {"measurement": "GI50", "setting": "OVCAR-4 ovarian", "result": 3.18, "unit": "µM"}, {"measurement": "TGI", "setting": "OVCAR-4 ovarian", "result": 25.6, "unit": "µM"}, {"measurement": "GI50", "setting": "HCC-2998 colon", "result": 3.26, "unit": "µM"}, {"measurement": "TGI", "setting": "HCC-2998 colon", "result": 15.8, "unit": "µM"}, {"measurement": "GI50", "setting": "NCI-H23 lung", "result": 10.1, "unit": "µM"}, {"measurement": "TGI", "setting": "NCI-H23 lung", "result": 41.5, "unit": "µM"}, {"measurement": "GI50", "setting": "HOP-92 NSCLC", "result": 3.47, "unit": "µM"}, {"measurement": "TGI", "setting": "HOP-92 NSCLC", "result": 28.4, "unit": "µM"}, {"measurement": "GI50", "setting": "NCI-H522 lung", "result": 1.15, "unit": "µM"}, {"measurement": "TGI", "setting": "NCI-H522 lung", "result": 4.02, "unit": "µM"}, {"measurement": "GI50", "setting": "OVCAR-3 ovarian", "result": 1.72, "unit": "µM"}, {"measurement": "TGI", "setting": "OVCAR-3 ovarian", "result": 6.25, "unit": "µM"}]}
{"smiles": "COc1cc(-c2n/c(=C\\c3c(O)[nH]c4ccc(Cl)cc34)cc3c2=Nc2ccccc2-3)cc(OC)c1OC", "values": [{"measurement": "GI50", "setting": "IGROV1 ovarian", "result": 0.685, "unit": "µM"}, {"measurement": "TGI", "setting": "IGROV1 ovarian", "result": 4.09, "unit": "µM"}, {"measurement": "GI50", "setting": "OVCAR-5 ovarian", "result": 5.15, "unit": "µM"}, {"measurement": "TGI", "setting": "OVCAR-5 ovarian", "result": 16.9, "unit": "µM"}, {"measurement": "GI50", "setting": "OVCAR-4 ovarian", "result": 0.423, "unit": "µM"}, {"measurement": "TGI", "setting": "OVCAR-4 ovarian", "result": 1.78, "unit": "µM"}, {"measurement": "GI50", "setting": "HCC-2998 colon", "result": 2.98, "unit": "µM"}, {"measurement": "TGI", "setting": "HCC-2998 colon", "result": 11, "unit": "µM"}, {"measurement": "GI50", "setting": "NCI-H23 lung", "result": 1.05, "unit": "µM"}, {"measurement": "TGI", "setting": "NCI-H23 lung", "result": 3.85, "unit": "µM"}, {"measurement": "GI50", "setting": "HOP-92 NSCLC", "result": 1.32, "unit": "µM"}, {"measurement": "TGI", "setting": "HOP-92 NSCLC", "result": 3.32, "unit": "µM"}, {"measurement": "GI50", "setting": "NCI-H522 lung", "result": 1.79, "unit": "µM"}, {"measurement": "TGI", "setting": "NCI-H522 lung", "result": 4.09, "unit": "µM"}, {"measurement": "GI50", "setting": "M14 melanoma", "result": 1.43, "unit": "µM"}, {"measurement": "TGI", "setting": "M14 melanoma", "result": 3.02, "unit": "µM"}, {"measurement": "GI50", "setting": "OVCAR-3 ovarian", "result": 0.417, "unit": "µM"}, {"measurement": "TGI", "setting": "OVCAR-3 ovarian", "result": 1.53, "unit": "µM"}]}
{"smiles": "Cc1nc(Cl)c(Cl)c(Cl)n1", "values": [{"measurement": "TGI", "setting": "U251 CNS", "result": 4.07, "unit": "µM"}, {"measurement": "TGI", "setting": "IGROV1 ovarian", "result": 0.344, "unit": "µM"}, {"measurement": "TGI", "setting": "OVCAR-5 ovarian", "result": 3.03, "unit": "µM"}, {"measurement": "TGI", "setting": "OVCAR-4 ovarian", "result": 0.097, "unit": "µM"}, {"measurement": "TGI", "setting": "HCC-2998 colon", "result": 7.04, "unit": "µM"}, {"measurement": "TGI", "setting": "NCI-H23 lung", "result": 2.1, "unit": "µM"}, {"measurement": "TGI", "setting": "HOP-92 NSCLC", "result": 0.849, "unit": "µM"}, {"measurement": "TGI", "setting": "NCI-H522 lung", "result": 3.88, "unit": "µM"}, {"measurement": "TGI", "setting": "M14 melanoma", "result": 0.48, "unit": "µM"}, {"measurement": "TGI", "setting": "OVCAR-3 ovarian", "result": 0.281, "unit": "µM"}]}
{"smiles": "O=C(N/C(=C\\c1ccccc1[N+](=O)[O-])c1nc2ccccc2[nH]1)c1ccccc1", "values": [{"measurement": "TGI", "setting": "U251 CNS", "result": "> 100", "unit": "µM"}, {"measurement": "TGI", "setting": "IGROV1 ovarian", "result": "> 100", "unit": "µM"}, {"measurement": "TGI", "setting": "OVCAR-5 ovarian", "result": "> 100", "unit": "µM"}, {"measurement": "TGI", "setting": "OVCAR-4 ovarian", "result": "> 100", "unit": "µM"}, {"measurement": "TGI", "setting": "HCC-2998 colon", "result": "> 100", "unit": "µM"}, {"measurement": "TGI", "setting": "NCI-H23 lung", "result": "> 100", "unit": "µM"}, {"measurement": "TGI", "setting": "HOP-92 NSCLC", "result": "> 100", "unit": "µM"}, {"measurement": "TGI", "setting": "NCI-H522 lung", "result": "> 100", "unit": "µM"}, {"measurement": "TGI", "setting": "M14 melanoma", "result": "> 100", "unit": "µM"}, {"measurement": "TGI", "setting": "OVCAR-3 ovarian", "result": "> 100", "unit": "µM"}]}
{"smiles": "CC(C)(N)CO[C@H]1C[C@H]2CC[C@@]1(C)C2(C)C", "values": [{"measurement": "TGI", "setting": "U251 CNS", "result": 36.4, "unit": "µM"}, {"measurement": "TGI", "setting": "IGROV1 ovarian", "result": "> 100", "unit": "µM"}, {"measurement": "TGI", "setting": "OVCAR-5 ovarian", "result": 41.3, "unit": "µM"}, {"measurement": "TGI", "setting": "OVCAR-4 ovarian", "result": 74.5, "unit": "µM"}, {"measurement": "TGI", "setting": "HCC-2998 colon", "result": 5.23, "unit": "µM"}, {"measurement": "TGI", "setting": "NCI-H23 lung", "result": 66, "unit": "µM"}, {"measurement": "TGI", "setting": "HOP-92 NSCLC", "result": 49.1, "unit": "µM"}, {"measurement": "TGI", "setting": "NCI-H522 lung", "result": 37.1, "unit": "µM"}, {"measurement": "TGI", "setting": "M14 melanoma", "result": 31.4, "unit": "µM"}, {"measurement": "TGI", "setting": "OVCAR-3 ovarian", "result": "> 100", "unit": "µM"}]}
{"smiles": "O=c1[nH][nH]c(=O)[nH]1", "values": [{"measurement": "TGI", "setting": "U251 CNS", "result": "> 100", "unit": "µM"}, {"measurement": "TGI", "setting": "IGROV1 ovarian", "result": "> 100", "unit": "µM"}, {"measurement": "TGI", "setting": "OVCAR-5 ovarian", "result": "> 100", "unit": "µM"}, {"measurement": "TGI", "setting": "OVCAR-4 ovarian", "result": "> 100", "unit": "µM"}, {"measurement": "TGI", "setting": "HCC-2998 colon", "result": "> 100", "unit": "µM"}, {"measurement": "TGI", "setting": "NCI-H23 lung", "result": "> 100", "unit": "µM"}, {"measurement": "TGI", "setting": "HOP-92 NSCLC", "result": "> 100", "unit": "µM"}, {"measurement": "TGI", "setting": "NCI-H522 lung", "result": "> 100", "unit": "µM"}, {"measurement": "TGI", "setting": "M14 melanoma", "result": "> 100", "unit": "µM"}, {"measurement": "TGI", "setting": "OVCAR-3 ovarian", "result": "> 100", "unit": "µM"}]}
{"smiles": "CCn1nc(C)c2c1C(=O)NC(C)C(=O)N2", "note": "(stereo not given)", "values": [{"measurement": "TGI", "setting": "U251 CNS", "result": "> 100", "unit": "µM"}, {"measurement": "TGI", "setting": "IGROV1 ovarian", "result": "> 100", "unit": "µM"}, {"measurement": "TGI", "setting": "OVCAR-5 ovarian", "result": "> 100", "unit": "µM"}, {"measurement": "TGI", "setting": "OVCAR-4 ovarian", "result": "> 100", "unit": "µM"}, {"measurement": "TGI", "setting": "NCI-H23 lung", "result": "> 100", "unit": "µM"}, {"measurement": "TGI", "setting": "HOP-92 NSCLC", "result": "> 100", "unit": "µM"}, {"measurement": "TGI", "setting": "NCI-H522 lung", "result": "> 100", "unit": "µM"}, {"measurement": "TGI", "setting": "M14 melanoma", "result": "> 100", "unit": "µM"}, {"measurement": "TGI", "setting": "OVCAR-3 ovarian", "result": "> 100", "unit": "µM"}]}
